Data taken from patent publication US11090247B2, “Compositions for protecting the skin from heavy metals and formaldehyde” (FNG RESEARCH CO., LTD., priority 2016, dated 2021).

What was measured:
[1] = Removal test of heavy metals of active ingredients (pig skin, ICP-MS): Pb; conditions: contaminated pig skin
Experimental: (§1) (1) Preparation of Heavy Metal Contamination Sources and Pig Skin Samples
(§2) A pig was slaughtered, flayed and the bristle was shaved. The pig skin was cut to prepare 5*5 cm size of skin samples respectively.
(§3) The said skin samples were cleanly wiped with wet gauze, and then, added to 50 ml of methanol and extracted by shaking with ultrasonic for 60 min. 50 ml of methanol was further added and mixed. The pig skin samples were removed from the extracted solutions to prepare the test solutions.
(§4) The test solutions were analyzed for heavy metal components using an inductively coupled plasma mass spectrometer (ICP-MS, Xseries™ 2, Thermo Fisher Scientific, UK).

[2] = Removal test of heavy metals of active ingredients (pig skin, ICP-MS): Cd; conditions: contaminated pig skin
Experimental: as §1, §2, §3, §4

[3] = Removal test of heavy metals of active ingredients (pig skin, ICP-MS): Cu; conditions: contaminated pig skin
Experimental: as §1, §2, §3, §4

human skin = experiment: Skin irritation test of active ingredient (patch method, CTFA guidelines); format: in vivo; design: key to Degree of irritation: 0–0.1 none, 0.11–0.3 weak, 0.31–0.5 moderate, ≥0.51 strong irritation; conditions: 20 people, patch 24 hours; for Test result(number of subject) (+): (+): Apparent reddening than periphery; for Test result(number of subject) (++): (++): More reddened and swollen than periphery; for Test result(number of subject) (±): (±): slightly reddish than the periphery; for Test result(number of subject) (−): (−): No erythema or particularly no symptoms
Experimental: A total of 20 people (10 men and 10 women in their 20 s and 30 s) were tested for skin irritation using the patch method according to the guidelines of CTFA (The Cosmetic, Toiletry & Fragrance Association, Inc. Washington, D.C.).
A filter paper disk was placed in an 8 mm diameter, 10 panels of pin chamber.
After 24 hours, the pin chamber was removed, and skin conditions were visually observed.
[Criteria for Skin Irritation]
(−): No erythema or particularly no symptoms; (±): slightly reddish than the periphery; (+): Apparent reddening than periphery; (++): More reddened and swollen than periphery.
[Grade for Skin Irritation]
Degree of irritation 0-0.1: Grade I (unstimulated);
Degree of irritation 0.11-0.3: Grade II (weakly stimulated);
Degree of irritation 0.31-0.5: Grade III (moderately stimulated);
Degree of irritation 0.51 or more: Grade IV (strongly stimulated)

[4] = Formaldehyde removing ability test (GC); conditions: 2.0% formaldehyde solution; for Area (mAU*min) 30 min: formaldehyde GC area after 30 min; for Area (mAU*min) 30 min / Area (mAU*min) 180 min: 3 molar equivalents, room temperature; for Area (mAU*min) 180 min: formaldehyde GC area after 180 min; for Area (mAU*min) Initial: formaldehyde GC area, initial state, 3 molar equivalents of compound

SMILES: O=C(O)CN1CCN(CC(=O)O)CCN(CC(=O)O)CCN(CC(=O)O)CC1 [Embodiment 5, 2,2′,2″,2′″-(1,4,7,10-tetraazacyclododecane-1,4,7,10-tetrayl)tetraacetic acid]
- Removal of Heavy metals Pb (%) ([1]; 0.1 wt % aqueous solution): 92.4%
- Removal of Heavy metals Pb (%) ([1]; 0.5 wt % aqueous solution): 94.7%
- Removal of Heavy metals Pb (%) ([1]; 1.0 wt % aqueous solution): 95.1%
- Removal of Heavy metals Cd (%) ([2]; 0.1 wt % aqueous solution): 90.4%
- Removal of Heavy metals Cd (%) ([2]; 0.5 wt % aqueous solution): 93.6%
- Removal of Heavy metals Cd (%) ([2]; 1.0 wt % aqueous solution): 93.7%
- Removal of Heavy metals Cu (%) ([3]; 0.1 wt % aqueous solution): 94.6%
- Removal of Heavy metals Cu (%) ([3]; 0.5 wt % aqueous solution): 96.8%
- Removal of Heavy metals Cu (%) ([3]; 1.0 wt % aqueous solution): 97.2%
- Degree of irritation (human skin; 0.1 wt %): 0
- Grade (human skin; 0.1 wt %): I (Degree of irritation 0-0.1: Grade I (unstimulated))
- Test result(number of subject) (+) (human skin; 0.1 wt %): 0
- Test result(number of subject) (++) (human skin; 0.1 wt %): 0
- Test result(number of subject) (±) (human skin; 0.1 wt %): 0
- Test result(number of subject) (−) (human skin; 0.1 wt %): 20
- Degree of irritation (human skin; 0.5 wt %): 0
- Grade (human skin; 0.5 wt %): I (Degree of irritation 0-0.1: Grade I (unstimulated))
- Test result(number of subject) (+) (human skin; 0.5 wt %): 0
- Test result(number of subject) (++) (human skin; 0.5 wt %): 0
- Test result(number of subject) (±) (human skin; 0.5 wt %): 0
- Test result(number of subject) (−) (human skin; 0.5 wt %): 20
- Degree of irritation (human skin; 1.0 wt %): 0.05
- Grade (human skin; 1.0 wt %): I (Degree of irritation 0-0.1: Grade I (unstimulated))
- Test result(number of subject) (+) (human skin; 1.0 wt %): 0
- Test result(number of subject) (++) (human skin; 1.0 wt %): 0
- Test result(number of subject) (±) (human skin; 1.0 wt %): 1
- Test result(number of subject) (−) (human skin; 1.0 wt %): 19
- Area (mAU*min) 30 min [4]: 0.179 mAU*min
- Area (mAU*min) 180 min [4]: 0 mAU*min
- Area (mAU*min) Initial [4]: 0.305 mAU*min

SMILES: O=C(O)c1ccc(N2CCN(c3ccc(C(=O)O)cc3)CCN(c3ccc(C(=O)O)cc3)CCN(c3ccc(C(=O)O)cc3)CC2)cc1 [Embodiment 6, 4,4′,4″,4′″-(1,4,7,10-tetraazacyclododecane-1,4,7,10-tetrayl)tetrabenzoic acid]
- Removal of Heavy metals Pb (%) ([1]; 0.1 wt % aqueous solution): 90.2%
- Removal of Heavy metals Pb (%) ([1]; 0.5 wt % aqueous solution): 92.8%
- Removal of Heavy metals Pb (%) ([1]; 1.0 wt % aqueous solution): 93.2%
- Removal of Heavy metals Cd (%) ([2]; 0.1 wt % aqueous solution): 89.2%
- Removal of Heavy metals Cd (%) ([2]; 0.5 wt % aqueous solution): 90.9%
- Removal of Heavy metals Cd (%) ([2]; 1.0 wt % aqueous solution): 91.6%
- Removal of Heavy metals Cu (%) ([3]; 0.1 wt % aqueous solution): 94.1%
- Removal of Heavy metals Cu (%) ([3]; 0.5 wt % aqueous solution): 96.3%
- Removal of Heavy metals Cu (%) ([3]; 1.0 wt % aqueous solution): 97.0%
- Degree of irritation (human skin; 0.1 wt %): 0
- Grade (human skin; 0.1 wt %): I (Degree of irritation 0-0.1: Grade I (unstimulated))
- Test result(number of subject) (+) (human skin; 0.1 wt %): 0
- Test result(number of subject) (++) (human skin; 0.1 wt %): 0
- Test result(number of subject) (±) (human skin; 0.1 wt %): 0
- Test result(number of subject) (−) (human skin; 0.1 wt %): 20
- Degree of irritation (human skin; 0.5 wt %): 0
- Grade (human skin; 0.5 wt %): I (Degree of irritation 0-0.1: Grade I (unstimulated))
- Test result(number of subject) (+) (human skin; 0.5 wt %): 0
- Test result(number of subject) (++) (human skin; 0.5 wt %): 0
- Test result(number of subject) (±) (human skin; 0.5 wt %): 0
- Test result(number of subject) (−) (human skin; 0.5 wt %): 20
- Degree of irritation (human skin; 1.0 wt %): 0.05
- Grade (human skin; 1.0 wt %): I (Degree of irritation 0-0.1: Grade I (unstimulated))
- Test result(number of subject) (+) (human skin; 1.0 wt %): 0
- Test result(number of subject) (++) (human skin; 1.0 wt %): 0
- Test result(number of subject) (±) (human skin; 1.0 wt %): 1
- Test result(number of subject) (−) (human skin; 1.0 wt %): 19
- Area (mAU*min) 30 min [4]: 0.183 mAU*min
- Area (mAU*min) 180 min [4]: 0 mAU*min
- Area (mAU*min) Initial [4]: 0.305 mAU*min

SMILES: O=C(O)c1cncc(N2CCN(c3cncc(C(=O)O)c3)CCN(c3cncc(C(=O)O)c3)CCN(c3cncc(C(=O)O)c3)CC2)c1 [Embodiment 7, 5,5′,5″,5′″-(1,4,7,10-tetraazacyclododecane-1,4,7,10-tetrayl)tetranicotinic acid]
- Removal of Heavy metals Pb (%) ([1]; 0.1 wt % aqueous solution): 90.8%
- Removal of Heavy metals Pb (%) ([1]; 0.5 wt % aqueous solution): 93.1%
- Removal of Heavy metals Pb (%) ([1]; 1.0 wt % aqueous solution): 93.6%
- Removal of Heavy metals Cd (%) ([2]; 0.1 wt % aqueous solution): 87.9%
- Removal of Heavy metals Cd (%) ([2]; 0.5 wt % aqueous solution): 89.4%
- Removal of Heavy metals Cd (%) ([2]; 1.0 wt % aqueous solution): 90.7%
- Removal of Heavy metals Cu (%) ([3]; 0.1 wt % aqueous solution): 93.8%
- Removal of Heavy metals Cu (%) ([3]; 0.5 wt % aqueous solution): 95.1%
- Removal of Heavy metals Cu (%) ([3]; 1.0 wt % aqueous solution): 96.0%
- Degree of irritation (human skin; 0.1 wt %): 0
- Grade (human skin; 0.1 wt %): I (Degree of irritation 0-0.1: Grade I (unstimulated))
- Test result(number of subject) (+) (human skin; 0.1 wt %): 0
- Test result(number of subject) (++) (human skin; 0.1 wt %): 0
- Test result(number of subject) (±) (human skin; 0.1 wt %): 0
- Test result(number of subject) (−) (human skin; 0.1 wt %): 20
- Degree of irritation (human skin; 0.5 wt %): 0
- Grade (human skin; 0.5 wt %): I (Degree of irritation 0-0.1: Grade I (unstimulated))
- Test result(number of subject) (+) (human skin; 0.5 wt %): 0
- Test result(number of subject) (++) (human skin; 0.5 wt %): 0
- Test result(number of subject) (±) (human skin; 0.5 wt %): 0
- Test result(number of subject) (−) (human skin; 0.5 wt %): 20
- Degree of irritation (human skin; 1.0 wt %): 0
- Grade (human skin; 1.0 wt %): I (Degree of irritation 0-0.1: Grade I (unstimulated))
- Test result(number of subject) (+) (human skin; 1.0 wt %): 0
- Test result(number of subject) (++) (human skin; 1.0 wt %): 0
- Test result(number of subject) (±) (human skin; 1.0 wt %): 0
- Test result(number of subject) (−) (human skin; 1.0 wt %): 20
- Area (mAU*min) 30 min [4]: 0.181 mAU*min
- Area (mAU*min) 180 min [4]: 0 mAU*min
- Area (mAU*min) Initial [4]: 0.305 mAU*min

SMILES: O=C(O)c1ccc(N2CCN(c3ccc(C(=O)O)o3)CCN(c3ccc(C(=O)O)o3)CCN(c3ccc(C(=O)O)o3)CC2)o1 [Embodiment 8, 5,5′,5″,5′″-(1,4,7,10-tetraazacyclododecane-1,4,7,10-tetrayl)tetrakis(furan-2-carboxylic acid)]
- Removal of Heavy metals Pb (%) ([1]; 0.1 wt % aqueous solution): 91.4%
- Removal of Heavy metals Pb (%) ([1]; 0.5 wt % aqueous solution): 93.4%
- Removal of Heavy metals Pb (%) ([1]; 1.0 wt % aqueous solution): 94.0%
- Removal of Heavy metals Cd (%) ([2]; 0.1 wt % aqueous solution): 90.4%
- Removal of Heavy metals Cd (%) ([2]; 0.5 wt % aqueous solution): 91.3%
- Removal of Heavy metals Cd (%) ([2]; 1.0 wt % aqueous solution): 93.4%
- Removal of Heavy metals Cu (%) ([3]; 0.1 wt % aqueous solution): 94.3%
- Removal of Heavy metals Cu (%) ([3]; 0.5 wt % aqueous solution): 96.8%
- Removal of Heavy metals Cu (%) ([3]; 1.0 wt % aqueous solution): 97.2%
- Degree of irritation (human skin; 0.1 wt %): 0
- Grade (human skin; 0.1 wt %): I (Degree of irritation 0-0.1: Grade I (unstimulated))
- Test result(number of subject) (+) (human skin; 0.1 wt %): 0
- Test result(number of subject) (++) (human skin; 0.1 wt %): 0
- Test result(number of subject) (±) (human skin; 0.1 wt %): 0
- Test result(number of subject) (−) (human skin; 0.1 wt %): 20
- Degree of irritation (human skin; 0.5 wt %): 0
- Grade (human skin; 0.5 wt %): I (Degree of irritation 0-0.1: Grade I (unstimulated))
- Test result(number of subject) (+) (human skin; 0.5 wt %): 0
- Test result(number of subject) (++) (human skin; 0.5 wt %): 0
- Test result(number of subject) (±) (human skin; 0.5 wt %): 0
- Test result(number of subject) (−) (human skin; 0.5 wt %): 20
- Degree of irritation (human skin; 1.0 wt %): 0.10
- Grade (human skin; 1.0 wt %): I (Degree of irritation 0-0.1: Grade I (unstimulated))
- Test result(number of subject) (+) (human skin; 1.0 wt %): 0
- Test result(number of subject) (++) (human skin; 1.0 wt %): 0
- Test result(number of subject) (±) (human skin; 1.0 wt %): 2
- Test result(number of subject) (−) (human skin; 1.0 wt %): 18
- Area (mAU*min) 30 min [4]: 0.168 mAU*min
- Area (mAU*min) 180 min [4]: 0 mAU*min
- Area (mAU*min) Initial [4]: 0.305 mAU*min
